Legend:
Format in all cases: cell-based
K562 cells = experiment: Cell growth inhibitory activity assay (CellTiter-Glo), K562 cells; conditions: Homo sapiens, 72 h, CTG cell viability
Procedure, shortened: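 Growth inhibition of human K562 cells, sourced from Nanjing Kebai (CBP60529), was assessed with Promega's CellTiter-Glo kit, which measures viability through ATP quantification. Log-phase cells went into the inner wells of 96-well plates, with PBS in edge wells, incubated overnight at 37 °C and 5% CO2, then exposed to serially diluted compound for 72 h.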

Ba/F3 BCR-ABL1 WT = molecular target: T1, Ba/F3 BCR-ABL1 WT (Homo sapiens, UniProt P00519+P11274); experiment: Cell growth inhibitory activity assay (CellTiter-Glo), Ba/F3 BCR-ABL1 WT cells; conditions: 72 h, CTG cell viability
T1 construct: BCR (N-terminal fusion partner of the oncoprotein); expressed in transfected cells; host or cells: Ba/F3 (lentiviral transduction, monoclonal line)
Procedure, shortened: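 Compound dilutions applied for 72 h (37 °C, 5% CO2) to overnight-plated Ba/F3 cells, parental or engineered to express WT/mutant BCR-ABL1. ATP-based CellTiter-Glo luminescence read, referenced to day-0 viability and 0.5% DMSO wells; IC50 fitted by four-parameter logistic curve.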

Ba/F3 BCR-ABL1 T315I = molecular target: T2, Ba/F3 BCR-ABL1 T315I (Homo sapiens, UniProt P00519+P11274, T315I); experiment: Cell growth inhibitory activity assay (CellTiter-Glo), Ba/F3 BCR-ABL1 T315I cells; conditions: 72 h, CTG cell viability
T2 construct: BCR (N-terminal fusion partner of the oncoprotein); expressed in transfected cells; host or cells: Ba/F3 (lentiviral transduction, monoclonal line)
Procedure, shortened: (§1)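 Growth inhibition is measured in engineered Ba/F3 cells carrying mutant human BCR-ABL1 and in parental Ba/F3. Compounds in dilution series are applied for 72 h, then cellular ATP is quantified with CellTiter-Glo, normalised using a T0 baseline plate, and IC50 derived by nonlinear regression.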

Ba/F3 BCR-ABL1 T315M = molecular target: T3, Ba/F3 BCR-ABL1 T315M (Homo sapiens, UniProt P00519+P11274, T315M); experiment: Cell growth inhibitory activity assay (CellTiter-Glo), Ba/F3 BCR-ABL1 T315M cells; conditions: 72 h, CTG cell viability
T3 construct: BCR (N-terminal fusion partner of the oncoprotein); expressed in transfected cells; host or cells: Ba/F3 (lentiviral transduction, monoclonal line)
Procedure, shortened: as §1

Ba/F3 parental cells = experiment: Cell growth inhibitory activity assay (CellTiter-Glo), Ba/F3 parental cells; conditions: Mus musculus, BaF3, 72 h, CTG cell viability, read-out: IC50 Ba/F3 BCR-ABL1 Parental
Procedure, shortened: as §1

[1] = molecular target: T4, Ba/F3 BCR-ABL1 Y253H/E255K (Homo sapiens, UniProt P00519+P11274, E255K/Y253H); experiment: Cell growth inhibitory activity assay (CellTiter-Glo), Ba/F3 BCR-ABL1 Y253H/E255K cells; conditions: 72 h, CTG cell viability
T4 construct: BCR (N-terminal fusion partner of the oncoprotein); expressed in transfected cells; host or cells: Ba/F3 (lentiviral transduction, monoclonal line)
Procedure, shortened: as §1

[2] = molecular target: T5, Ba/F3 BCR-ABL1 E255V/T315I (Homo sapiens, UniProt P00519+P11274, E255V/T315I); experiment: Cell growth inhibitory activity assay (CellTiter-Glo), Ba/F3 BCR-ABL1 E255V/T315I cells; conditions: 72 h, CTG cell viability
T5 construct: BCR (N-terminal fusion partner of the oncoprotein); expressed in transfected cells; host or cells: Ba/F3 (lentiviral transduction, monoclonal line)
Procedure, shortened: as §1

Ba/F3 BCR-ABL1 A424T = molecular target: T6, Ba/F3 BCR-ABL1 A424T (Homo sapiens, UniProt P00519+P11274, A424T); experiment: Cell growth inhibitory activity assay (CellTiter-Glo), Ba/F3 BCR-ABL1 A424T cells; conditions: 72 h, CTG cell viability
T6 construct: BCR (N-terminal fusion partner of the oncoprotein); expressed in transfected cells; host or cells: Ba/F3 (lentiviral transduction, monoclonal line)
Experimental: (§2) In this assay, the Celltiter-Glo (CTG) kit provided by Promega was used, and it is a homogeneous cell viability assay method. The cell viability of cultured cells was measured by quantifying ATP. K562 cells were purchased from Nanjing Kebai, product number CBP60529; Ba/F3 parental cells were purchased from RIKEN BRC, product number RCB0805; other cells containing BCR-ABL1 WT, BCR-ABL1 T315I, BCR-ABL1 T315M, BCR-ABL1 Y253H/E255K, BCR-ABL1 E255V/T3151, BCR-ABL1 A424T, BCR-ABL1 A337V, BCR-ABL1 P465S, BCR-ABL1 V468F, and BCR-ABL1 I502L were all monoclonal engineered cell lines obtained by transducting Ba/F3 parental cells with the lentivirus plasmids containing WT or corresponding mutated BCR-ABL1.
(§3) The steps of cell viability assay are as follows: • a) Cells in logarithmic growth phase were collected. Cell suspension was prepared and the cells were counted. Concentration of the cells was calculated. • b) The cell suspension was diluted to the required concentration and then added to the middle wells of a 96-well plate, and PBS was added to the edge wells. The wells with no cells and only culture medium were used as blank controls. • c) In addition to the cell plate used for compound analysis, another 96-well plate was prepared as a T0 plate, and 3-6 blank wells and 3-6 cell wells were added. The next day, CTG was used to test the cell viability as the T0 viability value of the cells. • d) The cell plate was incubated at 37 °C in a 5% CO2 incubator overnight. • e) The next day, each concentration of a compound subjected to a gradient dilution was added, and the cell plate was incubated at 37 °C in a 5% CO2 incubator for 72 h. The wells with no compound and only 0.5% DMSO were used as positive controls for cell growth. • f) CTG reagent (CellTiter-Glo kit) was added according to the manufacturer's instructions to test the cell viability value. • g) The plate was read using Biotek cytation3.0 microplate reader and the data were exported. • h) IC50 was calculated using GraphPad Prism 7.0 software.
(§4) The IC50 (half-maximal inhibitory concentration) of the compound was obtained using the following nonlinear fitting formula: Y = Bottom + (Top−Bottom)/(1+10^(∧)((LogIC50−X)*HillSlope)) [formula] • X: Log value of the compound concentration • Y: Inhibition rate (% inhibition) • Top: Maximum response • Bottom: Baseline response • HillSlope: Slope of the curve
(§5) The formula for calculating cell inhibition rate (inhibition rate %) was: [formula]

Ba/F3 BCR-ABL1 A337V = molecular target: T7, Ba/F3 BCR-ABL1 A337V (Homo sapiens, UniProt P00519+P11274, A337V); experiment: Cell growth inhibitory activity assay (CellTiter-Glo), Ba/F3 BCR-ABL1 A337V cells; conditions: 72 h, CTG cell viability
T7 construct: BCR (N-terminal fusion partner of the oncoprotein); expressed in transfected cells; host or cells: Ba/F3 (lentiviral transduction, monoclonal line)
Experimental: as §2, §3, §4, §5

Ba/F3 BCR-ABL1 P465S = molecular target: T8, Ba/F3 BCR-ABL1 P465S (Homo sapiens, UniProt P00519+P11274, P465S); experiment: Cell growth inhibitory activity assay (CellTiter-Glo), Ba/F3 BCR-ABL1 P465S cells; conditions: 72 h, CTG cell viability
T8 construct: BCR (N-terminal fusion partner of the oncoprotein); expressed in transfected cells; host or cells: Ba/F3 (lentiviral transduction, monoclonal line)
Experimental: as §2, §3, §4, §5

Ba/F3 BCR-ABL1 V468F = molecular target: T9, Ba/F3 BCR-ABL1 V468F (Homo sapiens, UniProt P00519+P11274, V468F); experiment: Cell growth inhibitory activity assay (CellTiter-Glo), Ba/F3 BCR-ABL1 V468F cells; conditions: 72 h, CTG cell viability
T9 construct: BCR (N-terminal fusion partner of the oncoprotein); expressed in transfected cells; host or cells: Ba/F3 (lentiviral transduction, monoclonal line)
Experimental: as §2, §3, §4, §5

Ba/F3 BCR-ABL1 I502L = molecular target: T10, Ba/F3 BCR-ABL1 I502L (Homo sapiens, UniProt P00519+P11274, I502L); experiment: Cell growth inhibitory activity assay (CellTiter-Glo), Ba/F3 BCR-ABL1 I502L cells; conditions: 72 h, CTG cell viability
T10 construct: BCR (N-terminal fusion partner of the oncoprotein); expressed in transfected cells; host or cells: Ba/F3 (lentiviral transduction, monoclonal line)
Experimental: as §2, §3, §4, §5

Compound	IC50 (K562 cells) [µM]	IC50 (Ba/F3 BCR-ABL1 WT) [µM]	IC50 (Ba/F3 BCR-ABL1 T315I) [µM]	IC50 (Ba/F3 BCR-ABL1 T315M) [µM]	IC50 (Ba/F3 parental cells) [µM]	IC50 [1] [µM]	IC50 [2] [µM]	IC50 (Ba/F3 BCR-ABL1 A424T) [µM]	IC50 (Ba/F3 BCR-ABL1 A337V) [µM]	IC50 (Ba/F3 BCR-ABL1 P465S) [µM]	IC50 (Ba/F3 BCR-ABL1 V468F) [µM]	IC50 (Ba/F3 BCR-ABL1 I502L) [µM]
C[C@@H]1COCc2nc3cc(C(=O)Nc4ccc(OC(F)(F)Cl)cc4)cc(-c4cnc5c(c4)-c4nn(-c6cncnc6)cc4C5)c3n21 [T-66, (R)-N-(4-(chlorodifluoromethoxy)phenyl)-4-methyl-6-(2-(pyrimidin-5-yl)-2,4-dihydropyrazolo[3',4':3,4]cyclopenta[1,2-b]pyridin-7-yl)-3,4-dihydro-1H-benzo[4,5]imidazo[2,1-c][1,4]oxazine-8-carboxamide]	≤ 0.005	≤ 0.005	0.005 to 0.05	> 1	> 1	0.05 to 1	0.05 to 1	0.005 to 0.05	0.05 to 1	0.05 to 1	0.05 to 1	0.05 to 1
C[C@@H]1COCc2nc3cc(C(=O)Nc4ccc(OC(F)(F)Cl)cc4)cc(-c4cnc5c(c4)-c4c(cnn4-c4nccc(C#N)n4)C5)c3n21 [T-69-A, (R)-N-(4-(chlorodifluoromethoxy)phenyl)-6-(1-(4-cyanopyrimidin-2-yl)-1,4-dihydropyrazolo[3',4':3,4]cyclopenta[1,2-b]pyridin-7-yl)-4-methyl-3,4-dihydro-1H-benzo[4,5]imidazo[2,1-c][1,4]oxazine-8-carboxamide]	≤ 0.005	≤ 0.005	0.005 to 0.05	0.05 to 1	> 1	0.005 to 0.05	0.005 to 0.05	0.05 to 1	0.05 to 1	0.05 to 1	> 1	0.05 to 1
C[C@@H]1COCc2nc3cc(C(=O)Nc4ccc(OC(F)(F)Cl)cc4)cc(-c4cnc5c(c4)-c4nn(-c6nccc(C#N)n6)cc4C5)c3n21 [T-69-B, (R)-N-(4-(chlorodifluoromethoxy)phenyl)-6-(2-(4-cyanopyrimidin-2-yl)-2,4-dihydropyrazolo[3',4':3,4]cyclopenta[1,2-b]pyridin-7-yl)-4-methyl-3,4-dihydro-1H-benzo[4,5]imidazo[2,1-c][1,4]oxazine-8-carboxamide]	≤ 0.005	≤ 0.005	≤ 0.005	≤ 0.005	> 1	0.005 to 0.05	≤ 0.005	0.005 to 0.05	0.05 to 1	0.05 to 1	0.05 to 1	≤ 0.005
C[C@@H]1COCc2nc3cc(C(=O)Nc4ccc(OC(F)(F)Cl)cc4)cc(-c4cnc5c(c4)-c4nn(-c6cnccn6)cc4C5)c3n21 [T-71, (R)-N-(4-(chlorodifluoromethoxy)phenyl)-4-methyl-6-(2-(pyrazin-2-yl)-2,4-dihydropyrazolo[3',4':3,4]cyclopenta[1,2-b]pyridin-7-yl)-3,4-dihydro-1H-benzo[4,5]imidazo[2,1-c][1,4]oxazine-8-carboxamide]	≤ 0.005	≤ 0.005	≤ 0.005	0.005 to 0.05	> 1	≤ 0.005	≤ 0.005	0.005 to 0.05	0.05 to 1	0.05 to 1	0.05 to 1	0.005 to 0.05
Cc1cc(C)nc(-n2cc3c(n2)-c2cc(-c4cc(C(=O)Nc5ccc(OC(F)(F)Cl)cc5)cc5nc6n(c45)[C@H](C)COC6)cnc2C3)n1 [T-76, (R)-N-(4-(chlorodifluoromethoxy)phenyl)-6-(2-(4,6-dimethylpyrimidin-2-yl)-2,4-dihydropyrazolo[3',4':3,4]cyclopenta[1,2-b]pyridin-7-yl)-4-methyl-3,4-dihydro-1H-benzo[4,5]imidazo[2,1-c][1,4]oxazine-8-carboxamide]	≤ 0.005	≤ 0.005	≤ 0.005	≤ 0.005	> 1	≤ 0.005	≤ 0.005	≤ 0.005	0.05 to 1	0.05 to 1	0.05 to 1	0.005 to 0.05
C[C@@H]1COCc2nc3cc(C(=O)Nc4ccc(OC(F)(F)Cl)cc4)cc(-c4cnccn4)c3n21 [T-115, (R)-N-(4-(chlorodifluoromethoxy)phenyl)-4-methyl-6-(pyrazin-2-yl)-3,4-dihydro-1H-benzo[4,5]imidazo[2,1-c][1,4]oxazine-8-carboxamide]	≤ 0.005	≤ 0.005	0.005 to 0.05	> 1	> 1	0.005 to 0.05	0.005 to 0.05	0.05 to 1	0.05 to 1	0.05 to 1	0.05 to 1	0.05 to 1

— patent EP4768484A1, “HETEROCYCLIC FUSED RING COMPOUND, AND COMPOSITION AND USE THEREOF” (Shenzhen TargetRx, Inc., priority 2023, dated 2025)
